Data taken from paper PMC7768756, “BAM1/2 receptor kinase signaling drives CLE peptide-mediated formative cell divisions in Arabidopsis roots” (Proceedings of the National Academy of Sciences of the …, 2020).
Where two headings read alike, the source gives them in different places. Non-standard residues stand in square brackets, D forms with d. Residues, ends and D or L forms follow the SMILES beside them. No end group written: not given here. Hyp = O=C(O)[C@@H]1C[C@@H](O)CN1

B1: CLE13 dodecapeptide (CLE13p) (peptide, UniProt Q6NMF0 96-107, looked up)
peptide: RLVPSGPNPLHH
modifications: ends and bridges not checked
notes: CLE13p, the active dodecapeptide released from the CLE13 propeptide, Arabidopsis; source: synthetic peptide (>90% purity, Biomatik)
B2: CLE16 dodecapeptide (CLE16p) (peptide, UniProt Q8S8M2 92-103, looked up)
peptide: RLVHTGPNPLHN
modifications: ends and bridges not checked
notes: CLE16p, the active dodecapeptide released from the CLE16 propeptide, Arabidopsis; source: synthetic peptide (>90% purity, Biomatik)

Assays:
[1] = target: T1, BAM1 extracellular domain (Arabidopsis thaliana, UniProt O49545); assay: Grating-coupled interferometry (GCI) binding kinetics of CLE peptides versus the BAM1 ectodomain; details: for koff: pH 5, read-out: koff, dissociation rate constant; for kon: pH 5, read-out: kon, association rate constant
T1 construct: Drosophila BiP secretion signal peptide (N); StrepII (C, cleaved yes); 10xHis (C, cleaved yes); made in house; host or cells: Trichoplusia ni (strain Tnao38) insect cells, baculovirus (modified pFastBac)
T1 sequence (O49545 20-637): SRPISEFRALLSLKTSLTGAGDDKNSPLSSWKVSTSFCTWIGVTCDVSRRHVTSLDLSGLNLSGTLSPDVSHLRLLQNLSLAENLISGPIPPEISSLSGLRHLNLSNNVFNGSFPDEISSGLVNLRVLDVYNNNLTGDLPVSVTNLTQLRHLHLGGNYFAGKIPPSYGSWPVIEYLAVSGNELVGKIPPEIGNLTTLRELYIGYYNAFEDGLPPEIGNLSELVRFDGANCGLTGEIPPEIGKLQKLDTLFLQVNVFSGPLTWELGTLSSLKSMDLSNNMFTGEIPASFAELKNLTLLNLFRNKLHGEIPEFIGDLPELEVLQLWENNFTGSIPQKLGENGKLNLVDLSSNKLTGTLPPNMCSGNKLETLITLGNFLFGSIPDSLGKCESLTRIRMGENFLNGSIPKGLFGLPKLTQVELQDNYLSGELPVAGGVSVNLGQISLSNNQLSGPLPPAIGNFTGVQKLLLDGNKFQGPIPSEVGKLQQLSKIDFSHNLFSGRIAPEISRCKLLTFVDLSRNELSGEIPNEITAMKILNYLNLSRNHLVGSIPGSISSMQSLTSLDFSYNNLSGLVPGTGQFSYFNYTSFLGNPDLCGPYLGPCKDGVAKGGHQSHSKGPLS
From the text: The coding sequence of BAM1 (residues 20 to 637) was synthesized (GeneArt) with codons optimized for expression in Trichoplusia ni and cloned in a modified pFastBac vector (Geneva Biotech), harboring the Drosophila BiP secretion signal peptide and a TEV (tobacco etch virus protease) cleavable C-terminal StrepII, 10× His tag and a noncleavable Avi-tag ([41], [42]). T. ni (strain Tnao38) ([43]) cells were infected with a multiplicity of infection (MOI) of 1 at a density of 2 × 10^6 cells mL^−1 and incubated 26 h at 28 °C and 48 h at 22 °C. The secreted protein was purified from the supernatant by Ni^2+ (HisTrap Excel; GE Healthcare; equilibrated in 50 mM KPi pH 7.6, 250 mM NaCl, 1 mM 2-mercaptoethanol) and StrepII (Strep-Tactin XT Superflow high affinity chromatography: IBA; equilibrated in 20 mM Tris pH 8.0, 250 mM NaCl, 1 mM ethylenediaminetetraacetic acid) affinity chromatography. The tag was cleaved with His-tagged TEV protease at 4 °C overnight and removed by Ni^2+ affinity chromatography. Proteins were then further purified by size-exclusion chromatography on a Superdex 200 increase 10/300 GL column (GE Healthcare), equilibrated in 20 mM sodium citrate pH 5.0, 250 mM NaCl.
BAM1 protein (20 µM) was biotinylated with biotin ligase BirA (2 µM) ([42]) for 1 h at 25 °C, in a volume of 200 µL; 25 mM Tris pH 8, 150 mM NaCl, 5 mM MgCl2, 2 mM 2-mercaptoethanol, 0.15 mM biotin, 2 mM ATP, and followed by size-exclusion chromatography to purify the biotinylated protein.
Grating-coupled interferometry (GCI) experiments were derived by the Creoptix WAVE system (Creoptix). All experiments were performed on 4PCP WAVE chips (quasiplanar polycarboxylate surface; Creoptix). Borate buffer (100 mM sodium borate pH 9.0, 1 M NaCl; Xantec) was used for chip conditioning and streptavidin (Sigma) was immobilized on the chip surface with standard amine coupling; 7 min activation [1:1 mix of 400 mM N-(3-dimethylaminopropyl)-N′-ethylcarbodiimide hydrochloride and 100 mM N-hydroxysuccinimide] (Xantec), followed by injection of streptavidin (30 µg mL^−1) in 10 mM sodium acetate pH 5.0 (Sigma) until the desired density was reached, passivation of the surface (0.5% bovine serum albumin [Roche] in 10 mM sodium acetate pH 5.0) and final quenching with 1 M ethanolamine pH 8.0 for 7 min (Xantec). Then, biotinylated BAM1 (80 µg mL^−1) was captured on the chip surface. All kinetic analyses were performed at 25 °C with a 1:2 dilution series from 100 nM for CLE9 or 10 µM for the other peptides in 20 mM citrate pH 5.0, 250 mM NaCl, 0.01% Tween 20. Blank injections were used for double referencing and a dimethyl sulfoxide (DMSO) calibration curve for bulk correction. Analysis and correction of the obtained data were performed using the Creoptix WAVE control software (correction applied: X and Y offset; DMSO calibration; double referencing). Mass transport binding models with bulk correction were used to fit all experiments.

CYCD6;1 expression = assay: CYCLIND6;1p::GFP reporter expression in roots after exogenous CLE peptide treatment; format: in vivo, Arabidopsis; details: Col-0 roots; 0.1 μM CLEp for 48 h from 3 dag, imaged 5 dag
Method: Seeds were surface sterilized with 70% ethanol and 0.1% Triton X-100 for 10 min, rinsed three times with 70% ethanol, and plated onto 0.5× Murashige and Skoog (MS) (pH 5.7) (Research Products International) with 8 g/L Phytoagar (Research Products International) and stratified at 4 °C for 2 d. Following stratification, seeds were germinated in a continuous light growth chamber at 22 °C to 24 °C. For peptide-treated plants, sterilized seeds were stratified and germinated on 0.5× MS plates. At 3 d after germination (dag), seedlings were transferred to either 0.5× MS plates or 0.5× MS plates supplemented with 0.1 μM CLEp for 48 h. Roots were imaged 5 dag as described in the figure legends. All synthetic peptides (>90% purity, Biomatik) (SI Appendix, Table S1) were dissolved in sterile dH2O as recommended. For treatment with dexamethasone (Dex; Sigma), seedlings were stratified and germinated on 0.5× MS plates supplemented with 10 μM Dex for 3 d before imaging.
Laser scanning confocal microscopy of roots was performed using either a C-Apochromat 40×/1.20 W Korr objective on a Zeiss laser scanning microscopy (LSM) 710 or an EC Plan-Neofluar 40×/1.30 oil differential interference contrast (DIC) M27 objective on a Zeiss LSM 880. Roots were examined by staining with 10 μM propidium iodide (PI) (Sigma-Aldrich). For images in Figs. 2B and 4 A and C and SI Appendix, Figs. S1D and S2B, seedlings were fixed in 4% paraformaldehyde in phosphate-buffered saline (PBS) for 45 min, rinsed in PBS, and cleared in ClearSee solution ([38]) overnight. Fixed seedlings were incubated in 0.2% Calcofluor white (Sigma-Aldrich) for 30 min and transferred to fresh ClearSee solution 2 to 24 h before imaging. Laser line excitations and emissions are as follows: Calcofluor white (405 nm; 410 to 551 nm), GFP (488 nm; 492 to 551 nm), YFP (514 nm; 519 to 564 nm), mCherry (561 nm; 566 to 606 nm), and PI (561 nm; 566 to 682 nm). Histological sectioning of Col-0 and bam1/2/3 roots 6 dag were prepared as previously described ([39]).

[2] = target: T2, BAM1 extracellular domain (BARELY ANY MERISTEM1 receptor kinase, residues 20 to 637) (Arabidopsis, UniProt O49545 20-637, biotin (by biotin ligase BirA))
T2 chain: T1 sequence (O49545 20-637)

[3] = target: T3, BAM1 extracellular domain (BARELY ANY MERISTEM1 receptor kinase, residues 20 to 637) (Arabidopsis, UniProt O49545 20-637, biotin (by biotin ligase BirA)); assay: grating-coupled interferometry (GCI); biotinylated BAM1 captured on streptavidin on a 4PCP WAVE chip (Creoptix WAVE); peptides as analyte, 1:2 dilution series from 10 µM; 25 °C; 20 mM citrate pH 5.0, 250 mM NaCl, 0.01% Tween 20; one-to-one binding model with mass transport; details: both partners purified
T3 construct: synthetic gene, codon-optimised for Trichoplusia ni; Expressed behind the Drosophila BiP secretion signal peptide in a modified pFastBac vector; the StrepII and 10x His tags were removed with TEV protease, the Avi-tag is not cleavable and was used to capture the protein on streptavidin; also called BAM1 ectodomain; biotinylated BAM1; source: Trichoplusia ni (strain Tnao38) cells, secreted, …
T3 sequence (looked up): T1 sequence (O49545 20-637)

Molecule	koff [1]	kon [1]	other results
CC(C)C[C@H](NC(=O)[C@@H](N)CCCNC(=N)N)C(=O)N[C@H](C(=O)N1C[C@H](O)C[C@H]1C(=O)N[C@@H](CO)C(=O)NCC(=O)N1C[C@H](O)C[C@H]1C(=O)N[C@@H](CC(N)=O)C(=O)N1CCC[C@H]1C(=O)N[C@@H](CC(C)C)C(=O)N[C@@H](Cc1c[nH]cn1)C(=O)N[C@@H](CC(N)=O)C(=O)O)C(C)C [CLE9, reference compound] (H-RLV[Hyp]SG[Hyp]NPLHN-OH; N-terminus and C-terminus assumed)	0.024 s⁻¹	3.76e+07 M⁻¹ s⁻¹	
RLSPGGPDPQHH [CLE2p, synthesized root expressed CLE dodecapeptide, locus At4g18510]			Upregulation of CYCD6 observed? (CYCLIND6;1p::GFP response) (CYCD6;1 expression): No
RLSPGGPDPRHH [CLE1p, synthesized root expressed CLE dodecapeptide, locus At1g73165]			Upregulation of CYCD6 observed? (CYCLIND6;1p::GFP response) (CYCD6;1 expression): No
RLVHTGPNPLHN [CLE16p]	1.05 s⁻¹	1.51e+08 M⁻¹ s⁻¹	
RLVPSGPNPLHH [CLE13p]	0.603 s⁻¹	5.88e+07 M⁻¹ s⁻¹	
RRVPSGPNPLHH [CLE12p, synthesized root expressed CLE dodecapeptide, locus At1g68795]			Upregulation of CYCD6 observed? (CYCLIND6;1p::GFP response) (CYCD6;1 expression): Yes
RTVPSGPDPLHH [CLV3, reference compound]	0.549 s⁻¹	38200 M⁻¹ s⁻¹	
RLVPSGPNPLHN [CLE9]			Kd [2]: 0.6 nM
RTVPSGPDPLHH [CLV3]			Kd [2]: 14000 nM
B1			Kd [3]: 10 nM
B2			Kd [3]: 6.9 nM
